System: α7 integrin promoter
Assay: muscle cell-based assay: α7βgal+/− myoblasts/myotubes, LacZ reporter, β-galactosidase cleavage of FDG
Parameters: species or system mouse; Results in α7+/− β-galactosidase assay: scale not given here
Details: Myotubes; for Results in a α7+/− β-galactosidase assay, Myotubes, 0.5 uM: compound at 0.5 uM; for Results in a α7+/− β-galactosidase assay, Myotubes, 1 uM: compound at 1 uM; for Results in a α7+/− β-galactosidase assay, Myotubes, 5 uM: compound at 5 uM; for Results in a α7+/− β-galactosidase assay, Myotubes, 10 uM: compound at 10 uM; for Results in a α7+/− β-galactosidase assay, Myotubes, 20 uM: compound at 20 uM; for Results in a α7+/− β-galactosidase assay, Myotubes, 40 uM: compound at 40 uM
How it was run: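 Primary α7βgal+/− mouse myoblasts (LacZ knocked into α7 integrin exon 1, promoter retained), differentiated; promoter activity read as β-galactosidase conversion of non-fluorescent FDG to fluorescein. Hits followed by dose-response, western analysis and myostatin counterscreen.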

Row | Compound | Results in a α7+/− β-galactosidase assay, Myotubes, 0.5 uM | Results in a α7+/− β-galactosidase assay, Myotubes, 1 uM | Results in a α7+/− β-galactosidase assay, Myotubes, 5 uM | Results in a α7+/− β-galactosidase assay, Myotubes, 10 uM | Results in a α7+/− β-galactosidase assay, Myotubes, 20 uM | Results in a α7+/− β-galactosidase assay, Myotubes, 40 uM | Results in α7+/− β-galactosidase assay (0.5 uM) | Results in α7+/− β-galactosidase assay (1 uM) | Results in α7+/− β-galactosidase assay (5 uM) | Results in α7+/− β-galactosidase assay (10 uM) | Results in α7+/− β-galactosidase assay (20 uM) | Results in α7+/− β-galactosidase assay (40 uM)
1 | COc1ccccc1CC(=O)Nc1cc(S(=O)(=O)N2CCOCC2)ccc1N1CCOCC1 [drawing 491] | 0.003263 | 0.04702 | −0.2793 | 0.1263 | −0.1143 | 0.0714 |  |  |  |  |  | 
2 | COc1ccccc1/C=C1\C(=O)Nc2ccccc21 [drawing 492] | −0.03334 | 0.08625 | −0.2626 | 0.09022 | −0.05273 | 0.2894 |  |  |  |  |  | 
3 | CN1C(=O)N(CC(=O)N2CCN(S(=O)(=O)c3ccc(Cl)s3)CC2)C(=O)C12CCCCC2 [drawing 493] | 0.02298 | 0.1534 | −0.342 | 0.1222 | −0.2548 | −0.1971 |  |  |  |  |  | 
4 | Cn1cc(CN2CCC(C(=O)Nc3cccc(-c4cscn4)c3)CC2)cn1 [drawing 494] | −0.07662 | 0.03293 | −0.2802 | 0.1352 | −0.1701 | 0.00319 |  |  |  |  |  | 
5 | O=C1Cc2ccccc2/C1=C\c1ccc([N+](=O)[O-])cc1 [drawing 495] | −0.06418 | −0.0268 | −0.312 | 0.004591 | −0.246 | −0.2389 |  |  |  |  |  | 
6 | CCCC(=O)OCC(=O)c1[nH]c(C)c(C(C)=O)c1C [drawing 496] | −0.1192 | −0.0136 | −0.3312 | −0.02935 | −0.1657 | −0.01124 |  |  |  |  |  | 
7 | CCO/C(C)=C1\C(=O)Nc2ccccc21 [drawing 497] | −0.1394 | 0.0259 | −0.3175 | −0.219 | −0.1574 | 0.04819 |  |  |  |  |  | 
8 | COc1ccc(C(=O)Nc2ccc(Cl)cn2)cc1Cl [drawing 498] | 0.01557 | −0.1102 | −0.4051 | −0.6189 | −0.2285 | −0.2585 |  |  |  |  |  | 
9 | CCOc1ccccc1NC(=O)c1cccc2c1C(=O)N(C1CCCCC1)C2 [drawing 499] | 0.0377 | −0.1345 | −0.3317 | −0.3744 | −0.1769 | −0.1762 |  |  |  |  |  | 
10 | CCOC(=O)C1CCCN(C(=O)CNS(=O)(=O)c2ccc(Br)s2)C1 (stereo not drawn) [drawing 500] | −0.02306 | 0.05901 | −0.3059 | −0.1617 | −0.03881 | −0.02855 |  |  |  |  |  | 
11 | Cc1nnc(SCC(=O)c2ccc(Br)cc2)s1 [drawing 501] | −0.07126 | 0.01886 | −0.2188 | −0.3746 | −0.08999 | 0.006174 |  |  |  |  |  | 
12 | Cn1ccc(C(=O)Nc2cccnc2Cl)n1 [drawing 502] | 0.04794 | −0.05775 | 0.0198 | 0.06627 | −0.1124 | −0.1256 |  |  |  |  |  | 
13 | CCOC(=O)c1sc(=N)n(-c2ccc(OC)cc2)c1C [drawing 503] | 0.01467 | −0.0655 | −0.3446 | −0.2817 | −0.1985 | −0.1785 |  |  |  |  |  | 
14 | COc1c(Cl)cc(/C=C2\C(=O)Nc3ccccc32)cc1Cl [drawing 504] | −0.04389 | −0.02066 | −0.212 | −0.2296 | −0.06953 | −0.1103 |  |  |  |  |  | 
15 | COc1c(Cl)cc(/C=C2\C(=O)Nc3ccccc32)cc1Cl [drawing 505] | −0.1548 | −0.1313 | −0.4088 | −0.5935 | −0.3163 | −0.3432 |  |  |  |  |  | 
16 | CC(=O)Oc1c(Cl)cc(/C=C2\C(=O)Nc3ccccc32)cc1Cl [drawing 506] | −0.05659 | −0.06941 | −0.2138 | −0.4615 | −0.2526 | −0.403 |  |  |  |  |  | 
17 | CCN(CC)CCNC(=O)c1c(C)[nH]c(CC2C(=O)Nc3ccc(F)cc32)c1C (stereo not drawn) [drawing 507] | −0.07384 | −0.08032 | −0.9266 | −1.896 | −0.9097 | −0.9224 |  |  |  |  |  | 
18 | O=C1Nc2ccccc2/C1=C1\Nc2ccccc2C1=O [drawing 508] |  |  |  |  |  |  | −0.08969 | −0.08698 | −0.493 | −0.5852 | −0.318 | −0.3129
19 | Cc1[nH]c(/C=C2\C(=O)Nc3ccccc32)c(C)c1CCC(=O)O [drawing 509] |  |  |  |  |  |  | 0.04928 | 0.07615 | −0.501 | −0.6162 | −0.2542 | −0.3688
